Structures can show the parent of a compound that is named as a salt.
What was measured:
human α2c receptor = target: T1, human α2c receptor (Homo sapiens, UniProt P18825); experiment: Competition binding ([3H]rauwolscine) at cloned human α2c receptor; conditions: transfected LM(tk−) cells, [3H]rauwolscine 0.5 nM; read-out: Binding affinity hα2c
T1 construct: expressed in transfected cells
T1 sequence (P18825 1-462): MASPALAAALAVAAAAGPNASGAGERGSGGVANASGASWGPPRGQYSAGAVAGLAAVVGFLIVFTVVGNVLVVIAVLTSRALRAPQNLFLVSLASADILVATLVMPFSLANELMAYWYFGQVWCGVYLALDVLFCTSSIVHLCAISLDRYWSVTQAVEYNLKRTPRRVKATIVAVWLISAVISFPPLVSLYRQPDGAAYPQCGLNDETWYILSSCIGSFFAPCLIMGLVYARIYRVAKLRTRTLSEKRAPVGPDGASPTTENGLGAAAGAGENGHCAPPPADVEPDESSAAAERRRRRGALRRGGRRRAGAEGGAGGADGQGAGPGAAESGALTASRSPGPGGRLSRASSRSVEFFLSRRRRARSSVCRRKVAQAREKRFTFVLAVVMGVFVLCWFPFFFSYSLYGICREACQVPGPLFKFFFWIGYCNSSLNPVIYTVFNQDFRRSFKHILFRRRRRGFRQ
From the text: (§1) α2 Human Adrenergic Receptors
(§2) To determine the potency of α1 antagonists at the α2 receptors, LM(tk−) cell lines stably transfected with the genes encoding the α2a, α2b, and α2c receptors were used. The cell line expressing the α2a receptor is designated L-α2A, and was deposited on Nov. 6, 1992 under ATCC Accession No. CRL 11180. The cell line expressing the α2b receptor is designated L-NGC-α2B, and was deposited on Oct. 25, 1989 under ATCC Accession No. CRL10275. The cell line expressing the α2c receptor is designated L-α2C, and was deposited on Nov. 6, 1992 under ATCC Accession No. CRL-11181. All the cell lines were deposited with the American Type Culture Collection, 12301 Parklawn Drive, Rockville, Md. 20852, U.S.A. under the provisions of the Budapest Treaty for the International Recognition of the Deposit of Microorganisms for the Purposes of Patent Procedure. Cell lysates were prepared as described above (see Radioligand Binding Assays), and suspended in 25 mM glycylglycine buffer (pH 7.6 at room temperature). Equilibrium competition binding assay were performed using [3H]rauwolscine (0.5 nM), and nonspecific binding was determined by incubation with 10 μM phentolamine. The bound radioligand was separated by filtration through GF/B filters using a cell harvester.

human α2a receptor = target: T2, human α2a receptor (Homo sapiens, UniProt P08913); experiment: Competition binding ([3H]rauwolscine) at cloned human α2a receptor; conditions: transfected LM(tk−) cells, [3H]rauwolscine 0.5 nM; read-out: Binding affinity hα2a
T2 construct: expressed in transfected cells
T2 sequence (P08913 1-465): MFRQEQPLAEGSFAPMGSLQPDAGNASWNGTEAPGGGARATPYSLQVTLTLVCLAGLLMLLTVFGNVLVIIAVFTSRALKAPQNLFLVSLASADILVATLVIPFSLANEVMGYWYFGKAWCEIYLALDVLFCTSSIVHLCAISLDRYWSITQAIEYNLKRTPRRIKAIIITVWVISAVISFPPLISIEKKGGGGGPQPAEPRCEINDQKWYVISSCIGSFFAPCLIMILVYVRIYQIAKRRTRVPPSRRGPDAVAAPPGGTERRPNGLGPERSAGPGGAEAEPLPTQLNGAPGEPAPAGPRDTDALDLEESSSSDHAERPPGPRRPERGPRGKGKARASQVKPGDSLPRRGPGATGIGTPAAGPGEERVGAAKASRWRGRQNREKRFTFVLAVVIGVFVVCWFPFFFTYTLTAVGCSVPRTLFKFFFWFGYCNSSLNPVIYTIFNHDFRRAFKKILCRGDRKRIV
From the text: as §1, §2

human α2b receptor = target: T3, human α2b receptor (Homo sapiens, UniProt P18089); experiment: Competition binding ([3H]rauwolscine) at cloned human α2b receptor; conditions: transfected LM(tk−) cells, [3H]rauwolscine 0.5 nM; read-out: Binding affinity hα2b
T3 construct: expressed in transfected cells
T3 sequence (P18089 1-450): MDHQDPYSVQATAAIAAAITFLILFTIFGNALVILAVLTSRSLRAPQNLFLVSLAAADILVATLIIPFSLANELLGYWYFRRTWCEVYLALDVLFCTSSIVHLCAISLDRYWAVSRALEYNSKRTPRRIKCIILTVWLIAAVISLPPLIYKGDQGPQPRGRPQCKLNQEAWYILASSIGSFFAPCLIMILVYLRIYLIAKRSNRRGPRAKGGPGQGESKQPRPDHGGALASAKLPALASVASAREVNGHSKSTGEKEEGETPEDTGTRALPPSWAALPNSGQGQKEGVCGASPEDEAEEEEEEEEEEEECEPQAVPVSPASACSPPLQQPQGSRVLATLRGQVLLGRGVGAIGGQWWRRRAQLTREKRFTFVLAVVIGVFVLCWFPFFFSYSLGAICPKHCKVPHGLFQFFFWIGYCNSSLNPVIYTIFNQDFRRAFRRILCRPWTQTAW
From the text: as §1, §2

human α1b receptor = target: T4, human α1b receptor (Homo sapiens, UniProt P35368); experiment: Radioligand binding ([3H]prazosin) at cloned human α1b receptor; conditions: membranes of transfected LM(tk−) cells, [3H]prazosin 0.5 nM; read-out: Binding affinity hα1b
T4 construct: The entire coding region of α1b (1563 bp); expressed in transfected cells
T4 sequence (P35368 1-520): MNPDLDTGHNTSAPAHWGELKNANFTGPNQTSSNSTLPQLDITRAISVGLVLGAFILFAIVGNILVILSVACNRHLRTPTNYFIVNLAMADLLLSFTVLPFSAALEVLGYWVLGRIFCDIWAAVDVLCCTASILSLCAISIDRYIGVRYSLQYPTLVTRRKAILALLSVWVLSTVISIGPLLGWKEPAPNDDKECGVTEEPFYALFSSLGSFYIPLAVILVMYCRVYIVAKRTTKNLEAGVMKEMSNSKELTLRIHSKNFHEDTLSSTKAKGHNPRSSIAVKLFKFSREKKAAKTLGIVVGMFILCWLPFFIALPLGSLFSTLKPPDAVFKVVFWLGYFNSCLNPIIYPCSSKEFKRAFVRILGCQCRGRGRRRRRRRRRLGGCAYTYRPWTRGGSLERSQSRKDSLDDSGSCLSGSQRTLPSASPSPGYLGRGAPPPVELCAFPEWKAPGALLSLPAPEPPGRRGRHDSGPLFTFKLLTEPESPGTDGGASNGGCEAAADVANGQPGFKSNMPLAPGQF
Protocol: The activity of compounds at the different human receptors was determined in vitro using cultured cell lines that selectively express the receptor of interest. These cell lines were prepared by transfecting the cloned cDNA or cloned genomic DNA or constructs containing both genomic DNA and cDNA encoding the human α-adrenergic receptors as follows:
α1b Human Adrenergic Receptor
The entire coding region of α1b (1563 bp), including 200 base pairs and 5′ untranslated sequence (5′ UT) and 600 bp of 3′ untranslated sequence (3′ UT), was cloned into the EcoRI site of pCEXV-3 eukaryotic expression vector.
The construct involved ligating the full-length containing EcoRI brainstem cDNA fragment from λ ZapII into the expression vector. Stable cell lines were selected as described above. The cell line used herein was designated L-α1B and was deposited with the American Type Culture Collection, 12301 Parklawn Drive, Rockville, Md. 20852, U.S.A. under the provisions of the Budapest Treaty for the International Recognition of the Deposit of Microorganisms for the Purposes of Patent Procedure. The cell line L-α1B was accorded ATCC Accession No. CR 11139, on Sep. 29, 1992.
Radioligand Binding Assays for α1 Receptors
Transfected cells from culture flasks were scraped into 5 ml of 5 mM Tris-HCl, 5 mM EDTA, pH 7.5, and lysed by sonication. The cell lysates were centrifuged at 1000 rpm for 5 min at 4° C., and the supernatant was centrifuged at 30,000×g for 20 min at 4° C. The pellet was suspended in 50 mM Tris-HCl, 1 mM MgCl2, and 0.1% ascorbic acid at pH 7.5. Binding of the α1 antagonist [^3H]prazosin (0.5 nM, specific activity 76.2 Ci/mmol) to membrane preparations of LM(tk−) cells was done in a final volume of 0.25 ml and incubated at 37° C. for 20 min. Nonspecific binding was determined in the presence of 10 μM phentolamine. The reaction was stopped by filtration through GF/B filters using a cell harvester. Inhibition experiments, routinely consisting of 7 concentrations of the tested compounds, were analyzed using a non-linear regression curve-fitting computer program to obtain Ki values.

SMILES: COCC1=C(C(=O)OC)[C@H](c2ccc(F)c(F)c2)N(C(=O)NCCC[n+]2ccc(-c3ccccn3)cc2)C(=O)N1 (as salt: chloride) [Compound 3, 4-(2-Pyridyl)-1-{3-[5-carboxymethyl-4-methoxymethyl-2-oxo-6(S)-(3,4-difluorphenyl)-1,2,3,6-tetrahydropyrimidin-1-yl]carboxyaminopropyl}pyridinium chloride]
- melting point: 60 to 85 °C

SMILES: O=C1OCC2=C1C(c1ccc(F)c(F)c1)N(C(=O)NCCCN1CCC(c3ccccn3)CC1)C(=O)N2 (single isomer, unassigned; (+)) (as salt: hydrochloride) [Compound 8, (+)-1-3-{[4-(3,4-Difluorophenyl)-2,5-dioxo-1,2,5,7-tetrahydro-4H-furo[3,4-d]-pyrimidine-3-carbonyl]amino}-propyl-4-(2-pyridyl)-piperidine]
- melting point: 90 to 95 °C

SMILES: COCC1=C(CC(=O)O)C(c2ccc(F)c(F)c2)N(C(=O)NCCC[N+]2([O-])CCC(c3ccccn3)CC2)C(=O)N1 (single isomer, unassigned; (+)) [Compound 4, (+)-4-(2-Pyridyl)-1-{3-[5-carboxymethyl-4-methoxymethyl-2-oxo-6-(3,4-difluorphenyl)-1,2,3,6-tetrahydropyrimidin-1-ylcarbonylamino]propyl}piperidine-1-oxide]
- Ki (human α2c receptor): 8 µM
- Ki (human α2a receptor): 22 µM
- Ki (human α2b receptor): 17 µM
- Ki (human α1b receptor): 1.35 µM

SMILES: COC(=O)C1=C(c2ccc(F)c(F)c2)N(C(=O)NCCCN2CCC(c3ccccn3)CC2)C(=O)NC1C(=O)O (single isomer, unassigned; (+)) [Compound 6, (+)-2-Oxo-3-{N-[4-(2-pyridyl)piperidin-1-yl]propyl}carboxamido-4-(3,4-difluorophenyl)-5-methoxycarbonyl-6-carboxy-1,2,3,6-tetrahydropyrimidine]
- Ki (human α2c receptor): > 50 µM
- Ki (human α2a receptor): > 50 µM
- Ki (human α2b receptor): 37.6 µM
- Ki (human α1b receptor): > 2 µM
